Data from ChEMBL document CHEMBL1201862, “PubChem BioAssay data set” (2004).
Where “and” joins values, the source holds several entries; their conditions need not be identical. Equal values may be shown once. Calls of active or inactive are those of the source.

Legend:
[1] = target: T1, Heat shock factor protein 1 (Mus musculus, UniProt P38532); test: HSF1 potentiators in luciferase reporter cells, confirmation, cell-based, NIH3T3, luminescence, dose retest (AID 435004); type: functional;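 further: stress induced by proteasome inhibitor MG132 added 30 min after compound; luciferase reporter driven by HSF1 response element in NIH3T3 cells; actives raise luminescence as potentiators of the MG132 stress response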
T1 sequence (P38532 whole entry): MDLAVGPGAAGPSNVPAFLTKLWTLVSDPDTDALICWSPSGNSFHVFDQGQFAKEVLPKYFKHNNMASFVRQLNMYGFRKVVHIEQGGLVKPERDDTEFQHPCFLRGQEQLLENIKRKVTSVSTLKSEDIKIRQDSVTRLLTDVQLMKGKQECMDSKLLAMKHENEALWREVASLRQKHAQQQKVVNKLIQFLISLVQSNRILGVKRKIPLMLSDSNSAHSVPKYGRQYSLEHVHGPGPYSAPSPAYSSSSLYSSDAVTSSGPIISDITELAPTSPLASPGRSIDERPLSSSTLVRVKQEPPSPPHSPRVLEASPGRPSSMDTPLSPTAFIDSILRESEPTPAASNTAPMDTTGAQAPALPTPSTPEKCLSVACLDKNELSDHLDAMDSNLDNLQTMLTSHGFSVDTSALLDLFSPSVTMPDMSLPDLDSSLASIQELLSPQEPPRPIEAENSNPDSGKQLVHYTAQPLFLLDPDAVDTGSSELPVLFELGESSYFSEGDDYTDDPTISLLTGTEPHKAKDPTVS

[2] = HEp-2 cell cytotoxicity, dose response, cytotoxicity control for RSV inhibitor project, HTS (AID 2410); type: functional; conditions: human respiratory syncytial virus
Cytochrome P450 1A2 = target: T2, Cytochrome P450 1A2 (Homo sapiens, UniProt P05177);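 further: PubChem cytochrome P450 panel assay, CYP1A2 panel member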
T2 sequence (P05177 whole entry): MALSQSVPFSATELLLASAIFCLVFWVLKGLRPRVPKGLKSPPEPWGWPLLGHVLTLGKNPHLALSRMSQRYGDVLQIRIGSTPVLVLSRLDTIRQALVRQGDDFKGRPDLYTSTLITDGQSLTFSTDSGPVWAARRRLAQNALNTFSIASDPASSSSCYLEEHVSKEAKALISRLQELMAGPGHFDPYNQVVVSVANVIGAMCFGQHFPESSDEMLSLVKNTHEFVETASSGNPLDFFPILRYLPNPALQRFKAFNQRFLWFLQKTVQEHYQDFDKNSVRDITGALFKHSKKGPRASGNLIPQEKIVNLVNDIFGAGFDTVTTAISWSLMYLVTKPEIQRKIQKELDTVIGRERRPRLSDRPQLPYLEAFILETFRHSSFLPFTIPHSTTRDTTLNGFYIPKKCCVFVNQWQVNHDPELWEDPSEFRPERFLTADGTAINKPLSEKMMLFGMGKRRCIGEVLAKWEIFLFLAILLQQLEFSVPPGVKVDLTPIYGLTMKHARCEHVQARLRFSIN

Cytochrome P450 2C9 = Cytochrome P450 2C9 (Homo sapiens, UniProt P11712)
Cytochrome P450 2C19 = Cytochrome P450 2C19 (Homo sapiens, UniProt P33261); test: Cytochrome panel assay with activity outcomes. Panel member name: p450-cyp2c19 Compounds with AC50 equal or less than 10 uM are considered active; type: functional; conditions: read-out: AC50
Cytochrome P450 3A4 = Cytochrome P450 3A4 (Homo sapiens, UniProt P08684);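 further: CYP3A4 tested as one member of a cytochrome P450 panel screen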
Paired box protein Pax-8 = Paired box protein Pax-8 (Homo sapiens, UniProt Q06710); test: inhibitors of PAX8-driven TPO luciferase reporter, dose response, RMG-I cells, cherry-pick (AID 687027); type: functional, cell-based;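 further: luciferase reporter driven by Pax8 target thyroperoxidase promoter measured by SteadyGlo luminescence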
[3] = inhibitors of intracellular T. cruzi replication, confirmation, NIH3T3 host cells, beta-gal luminescence (AID 2044); type: functional, cell-based;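 further: intracellular parasites grown in NIH/3T3 mouse fibroblasts as host cells; luminescent beta-galactosidase reporter signal from transgenic T. cruzi replicating inside host cells; inhibitors lower the luminescence signal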
[4] = cytotoxicity toward NIH3T3 fibroblasts, dose response, counter-screen, cell-based, ATP luminescence, mouse fibroblasts (AID 2010); type: functional;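 further: cells exposed to compound for about 90 hours before reading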

Cytochrome P450 2C9, sequence (P11712 whole entry): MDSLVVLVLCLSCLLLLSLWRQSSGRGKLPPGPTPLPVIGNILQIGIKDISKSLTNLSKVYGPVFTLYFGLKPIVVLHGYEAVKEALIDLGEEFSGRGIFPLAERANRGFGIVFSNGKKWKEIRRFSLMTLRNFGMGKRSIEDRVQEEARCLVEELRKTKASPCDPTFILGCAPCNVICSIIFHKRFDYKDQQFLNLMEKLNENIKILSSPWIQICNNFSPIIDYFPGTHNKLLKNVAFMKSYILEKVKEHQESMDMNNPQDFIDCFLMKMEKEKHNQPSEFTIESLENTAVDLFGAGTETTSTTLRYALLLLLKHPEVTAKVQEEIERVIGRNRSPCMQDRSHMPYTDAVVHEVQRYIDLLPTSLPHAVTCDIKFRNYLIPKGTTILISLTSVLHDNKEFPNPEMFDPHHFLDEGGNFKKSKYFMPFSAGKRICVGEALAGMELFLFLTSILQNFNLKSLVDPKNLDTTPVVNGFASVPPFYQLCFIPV
Cytochrome P450 3A4, sequence (P08684 whole entry): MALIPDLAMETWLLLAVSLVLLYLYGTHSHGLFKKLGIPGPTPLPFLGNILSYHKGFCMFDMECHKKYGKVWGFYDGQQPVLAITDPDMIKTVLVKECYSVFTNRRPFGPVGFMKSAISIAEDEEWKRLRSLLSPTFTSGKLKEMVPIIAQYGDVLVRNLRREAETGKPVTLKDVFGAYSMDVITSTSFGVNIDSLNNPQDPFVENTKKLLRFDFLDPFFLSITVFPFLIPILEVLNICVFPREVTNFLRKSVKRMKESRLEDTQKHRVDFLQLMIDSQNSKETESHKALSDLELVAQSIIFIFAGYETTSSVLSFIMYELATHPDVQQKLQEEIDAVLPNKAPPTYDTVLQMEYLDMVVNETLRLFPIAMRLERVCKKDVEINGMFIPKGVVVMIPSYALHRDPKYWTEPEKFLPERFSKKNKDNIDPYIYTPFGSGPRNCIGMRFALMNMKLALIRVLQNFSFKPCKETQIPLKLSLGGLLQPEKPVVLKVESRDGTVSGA
Paired box protein Pax-8, sequence (Q06710 whole entry): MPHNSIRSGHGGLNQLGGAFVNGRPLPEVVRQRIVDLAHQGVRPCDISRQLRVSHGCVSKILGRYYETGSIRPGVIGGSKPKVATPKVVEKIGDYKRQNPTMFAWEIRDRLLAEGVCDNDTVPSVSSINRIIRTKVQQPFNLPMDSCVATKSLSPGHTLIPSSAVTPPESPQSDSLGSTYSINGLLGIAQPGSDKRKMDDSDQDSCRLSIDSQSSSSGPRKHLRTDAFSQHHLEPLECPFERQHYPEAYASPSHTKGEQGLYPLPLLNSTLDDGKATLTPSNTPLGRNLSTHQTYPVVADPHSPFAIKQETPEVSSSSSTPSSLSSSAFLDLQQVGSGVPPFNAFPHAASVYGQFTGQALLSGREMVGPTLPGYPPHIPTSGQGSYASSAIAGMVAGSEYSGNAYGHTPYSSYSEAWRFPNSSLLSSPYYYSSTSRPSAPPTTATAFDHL
Cytochrome P450 2C19, sequence (P33261 whole entry): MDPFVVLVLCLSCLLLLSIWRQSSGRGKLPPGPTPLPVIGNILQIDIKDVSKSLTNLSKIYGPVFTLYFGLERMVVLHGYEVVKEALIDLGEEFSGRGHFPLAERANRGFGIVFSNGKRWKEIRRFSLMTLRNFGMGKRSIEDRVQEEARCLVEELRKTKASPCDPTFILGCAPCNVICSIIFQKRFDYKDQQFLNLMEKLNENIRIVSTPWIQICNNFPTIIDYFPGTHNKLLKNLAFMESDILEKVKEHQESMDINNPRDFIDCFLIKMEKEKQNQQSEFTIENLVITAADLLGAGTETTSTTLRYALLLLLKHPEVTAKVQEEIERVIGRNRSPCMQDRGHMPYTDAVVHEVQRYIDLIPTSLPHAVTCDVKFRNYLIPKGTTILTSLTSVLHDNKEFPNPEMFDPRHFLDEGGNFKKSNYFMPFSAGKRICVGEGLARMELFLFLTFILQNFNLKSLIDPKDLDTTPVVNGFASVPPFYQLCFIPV

## C/C=C1\COC(C(=O)NCc2ccccc2)(C(F)(F)F)C=C1C=C(C)C (centres undefined)
[1]
  EC50: > 260 µM (inactive)

## Cc1ccc(C2CC(C(F)F)n3ncc(C(=O)Nc4c(C)nn(Cc5c(F)cccc5Cl)c4C)c3N2)cc1 (centres undefined)
[2]
  CC50: 19.9 µM (active)

## COc1cccc(CNC(=O)Cn2nc(C)c([N+](=O)[O-])c2C)c1
[1]
  EC50: > 260 µM (inactive)

## COc1ccc(NC(=O)N2CC[C@@]3(CCCN(C(=O)c4ccc(OC)cc4)C3)C2)cc1
Cytochrome P450 1A2
  AC50: 25.1 µM (inconclusive)
Cytochrome P450 2C9
  AC50: 12.6 µM (inconclusive)

## Clc1ccc(OCCn2c(-c3ccco3)nc3ccccc32)cc1
[1]
  EC50: 12 µM (active)

## CC(=O)CSc1ncnc2sc3c(c12)CCC3
[2]
  CC50: 32.7 µM (active)

## Cc1ccc(NC2=NC(N)=NC3(CCCC3)N2)c(C)c1
[1]
  EC50: > 260 µM (inactive)

## COC(=O)[C@@]1(Cc2ccc(OC)cc2)[C@H]2c3cc(C(=O)N4CCCC4)n(CCN4CCOCC4)c3C[C@H]2CN1C(=O)c1ccccc1
Cytochrome P450 2C19
  AC50: 31.6 µM (inconclusive)
Cytochrome P450 2C9
  AC50: 31.6 µM (inconclusive)

## Cc1ccc(/C=C/c2nnc(-c3ccc(C)cc3)o2)cc1
Cytochrome P450 1A2
  AC50: 4.47 µM (inconclusive)
Cytochrome P450 3A4
  AC50: 10 µM (inconclusive)
Cytochrome P450 2C9
  AC50: 5.62 µM (inconclusive)

## Cc1cc(C)cc(OCC(=O)O/N=C(\N)Cc2ccc([N+](=O)[O-])cc2)c1
[1]
  EC50: > 260 µM (inactive)

## COC(=O)C(NC(=O)c1ccc(Cl)cc1)(Nc1nc(C)cs1)C(F)(F)F (centres undefined)
Cytochrome P450 1A2
  AC50: 28.2 µM (inconclusive)

## O=C1C2CC=CCC2C(=O)N1Cc1nnc(-c2ccc(Cl)cc2)o1 (centres undefined)
[1]
  EC50: 39.1 µM (active)

## Cc1ccc(C)c(CSC2=NCCN2C(=O)Cc2ccc([N+](=O)[O-])cc2)c1
Paired box protein Pax-8
  AC50: 26.3 µM (active)

## CSCCC(NS(=O)(=O)c1cccc(C(F)(F)F)c1)C(=O)N(C)CCOc1ccc(Cl)cc1 (centres undefined)
[1]
  EC50: > 260 µM (inactive)

## COc1ccc2nc(-c3ccccc3)cc(OC)c2c1
[2]
  CC50: > 50 µM (active)

## Cn1c(=O)c(CCc2ccccc2)nc2cnc(Nc3ccccc3)nc21
Cytochrome P450 1A2
  AC50: 1.26 µM (inconclusive)
Cytochrome P450 3A4
  AC50: 12.6 µM (inconclusive)
Cytochrome P450 2C9
  AC50: 10 µM (inconclusive)

## Cn1c(CNC(=O)Nc2ccccc2)nnc1SCc1ccccc1
Cytochrome P450 1A2
  AC50: 25.1 µM (inconclusive)

## CCOC(=O)/C(=N/Nc1ccc(Cl)cc1)Sc1nnnn1-c1ccc(C)cc1
[1]
  EC50: > 260 µM (inactive)

## COc1cc(-c2cnc3c(NC=O)cc(-c4ccccc4)cn23)cc(OC)c1OC
Paired box protein Pax-8
  AC50: 2.79 µM (active)

## O=C(COC(=O)C1CCN(S(=O)(=O)c2cccc3cccnc23)CC1)c1ccc([N+](=O)[O-])cc1
[1]
  EC50: > 260 µM (inactive)

## OC[C@@H](O)C1OC2N=C(S)OC2C1O (some centres undefined)
[1]
  EC50: > 260 µM (inactive)

## O=[N+]([O-])c1ccc(NC(S)=NC(=NCS(=O)(=O)c2ccccc2)c2ccccc2)cc1
[2]
  CC50: 11.1 µM (active)

## Fc1ccccc1OCCCCCCN1CCCC1
Cytochrome P450 2C19
  AC50: 39.8 µM (inconclusive)
Cytochrome P450 1A2
  AC50: 17.8 µM (inconclusive)
Cytochrome P450 3A4
  AC50: 17.8 µM (inconclusive)
Cytochrome P450 2C9
  AC50: 39.8 µM (inconclusive)

## CC[C@H](C(=O)c1cccs1)C(O)(C(F)(F)F)C(F)(F)F
Cytochrome P450 2C19
  AC50: 2 µM (inconclusive)
Cytochrome P450 2C9
  AC50: 7.94 µM (inconclusive)

## CCOC(=O)C(C)n1cnc2c(oc3ccccc32)c1=O (centres undefined)
Cytochrome P450 2C19
  AC50: 31.6 µM (inconclusive)
Cytochrome P450 2C9
  AC50: 28.2 µM (inconclusive)

## COc1ccc(/C=C(\C#N)C(=O)OCC(=O)Nc2ccc(-c3nc4ccc(C)cc4s3)cc2)cc1
[2]
  CC50: 18.6 µM (active)

## Cc1ccc([N+](=O)[O-])cc1NC(=O)CN(C)CCOc1ccccc1
[2]
  CC50: 24.3 µM (active)

## COC(=O)CSC(C(=O)Nc1ccc(C)c(C)c1)c1ccccc1 (centres undefined)
Cytochrome P450 2C19
  AC50: 0.398 µM (inconclusive)
Cytochrome P450 1A2
  AC50: 8.91 µM (inconclusive)

## O=C(CCc1ccc(S(=O)(=O)NCc2ccccc2)cc1)NCc1cccnc1
Paired box protein Pax-8
  AC50: 41.5 µM (active)

## C=C(C)Cn1c(SCC(=O)O)nnc1-c1ccc(OC)cc1
[1]
  EC50: > 260 µM (inactive)

## Cc1ccc(S(=O)(=O)Nc2ccc3c(c2)C(=O)N([C@@H](C)CO)C[C@@H](C)[C@@H](CN(C)S(=O)(=O)c2ccc(Cl)cc2)OCCCC[C@@H](C)O3)cc1
Paired box protein Pax-8
  AC50: 10.4 µM (active)

## CCN=C(S)NNC(=O)c1csc2c1CCCC2
[2]
  CC50: 17.9 µM (active)

## Cc1ccc(CS(=O)(=O)CCC(=O)NCc2cccs2)cc1
Cytochrome P450 1A2
  AC50: 15.8 µM (inconclusive)
Cytochrome P450 2C9
  AC50: 5.01 µM (inconclusive)

## COc1ccc(NS(=O)(=O)c2cccc(C(=O)N(C)Cc3ccc(SC)cc3)c2)cc1
[1]
  EC50: > 260 µM (inactive)

## CC(C)NC(=O)c1onc(CSc2cccc3ccccc23)c1C(=O)O
[2]
  CC50: 12.6 µM (active)

## Fc1ccc(CCNCc2ccc(Cl)c(Cl)c2)cc1
[3]
  EC50: 0.122 µM (active)
[4]
  EC50: > 30 µM (not active)
Cytochrome P450 2C9
  AC50: 17.8 µM (inconclusive)

## Cc1nn(-c2ccccc2)c(-c2ccccc2)c1C(=O)O
Cytochrome P450 2C19
  AC50: 5.01 µM (inconclusive)
Cytochrome P450 1A2
  AC50: 25.1 µM (inconclusive)
Cytochrome P450 2C9
  AC50: 1.12 µM (inconclusive)

## O=C(Nc1cc2c(oc1=O)CCCC2=O)c1ccc(Cl)cc1
Cytochrome P450 1A2
  AC50: 14.1 µM (inconclusive)

## CC(C)(C)c1ccc(C(=O)Nc2ccc(S(N)(=O)=O)cc2)cc1
[2]
  CC50: 20.1 µM (active)

## N=C(N)NC(=O)c1nc(Cl)c(N)nc1N [AMILORIDE]
Cytochrome P450 1A2
  AC50: 39.8 µM (inconclusive) and 12.6 µM (inconclusive)

## Oc1ccc(C[C@H]2CNC(=S)N2CC2CCCN2C[C@H](Cc2ccc(O)cc2)N2C[C@H](Cc3ccccc3)N(CC3CCCCCC3)C2=S)cc1 (some centres undefined)
Paired box protein Pax-8
  AC50: 9.86 µM (active)

## C[C@H](CO)N1C[C@H](C)[C@H](CN(C)Cc2ccc(Cl)c(Cl)c2)OCCCC[C@H](C)Oc2ccc(NC(=O)NC3CCCCC3)cc2C1=O
Paired box protein Pax-8
  AC50: 11.7 µM (active)

## CC(C)Oc1cc(-n2c(=S)[nH]c3ccccc3c2=O)c(Cl)cc1Cl
Cytochrome P450 1A2
  AC50: 12.6 µM (inconclusive)

## CCOC(=O)c1c(C)[nH]c(C)c1S(=O)(=O)N1CCN(c2ccc(F)cc2)CC1
[1]
  EC50: > 260 µM (inactive)

## Cc1nc(SCCOc2ccc(F)cc2)c2ccccc2n1
[1]
  EC50: 38.7 µM (active)

## N#Cc1nc(NCC(F)F)nc(Nc2cc(F)cc(F)c2)n1
Paired box protein Pax-8
  AC50: 5.01 µM (active)

## CCOC(=O)COc1cc(OCC(=O)OCC)c2c(=O)cc(-c3ccccc3)oc2c1
Cytochrome P450 1A2
  AC50: 15.8 µM (inconclusive)
